Literature values in paper PMC3499999, “Advances in the Treatment of Malaria” (Mediterranean Journal of Hematology and Infectious Diseases, 2012).

What was measured:
[1] = set-up: method as in PMID 10661809; settings: high intramuscular doses, oil-based, beagle dogs
[2] = set-up: method as in PMID 20863871; settings: animals, only for long drug exposure; artemether and arteether intramuscularly, artelinic acid orally
[3] = system: P. falciparum; set-up: method as in earlier work; settings: 3-days course
[4] = system: severe malaria; settings: artesunate versus quinine, systematic reviews, regardless of age and geographic differences
[5] = set-up: method as in PMID 22540954
[6] = system: severe malaria; set-up: method as in PMID 19059639; settings: rectal, over placebo, p=0.0013
[7] = not given; remark: listed apart in the source
[8] = set-up: method as in PMID 17461742
[9] = in vivo

CCO[C@H]1O[C@@H]2O[C@@]3(C)CC[C@H]4[C@H](C)CC[C@@H]([C@H]1C)[C@@]24OO3 [arteether]
QTc prolongation [1]: reported at significant level
neurotoxicity [2]: Fatal neurotoxicity

C[C@H]1[C@@H](OCc2ccc(C(=O)O)cc2)O[C@@H]2O[C@@]3(C)CC[C@H]4[C@H](C)CC[C@@H]1[C@@]24OO3 [artelinic acid]
neurotoxicity [2]: Fatal neurotoxicity

CO[C@H]1O[C@@H]2O[C@@]3(C)CC[C@H]4[C@H](C)CC[C@@H]([C@H]1C)[C@@]24OO3 [artemether]
half-life: 2 to 4 h
QTc prolongation [1]: reported at significant level
neurotoxicity [2]: Fatal neurotoxicity

C[C@@H]1CC[C@H]2[C@@H](C)C(=O)O[C@@H]3O[C@@]4(C)CC[C@@H]1[C@]32OO4 [artemisinin]
reduction of parasite burden [3]: 90%

C[C@H]1[C@H](OC(=O)CCC(=O)O)O[C@@H]2O[C@@]3(C)CC[C@H]4[C@H](C)CC[C@@H]1[C@@]24OO3 [artesunate]
half-life: < 1 h
case fatality rate, RR [4]: 0.71
median elimination T ½ [5]: 0.25 [0.11 – 1.82] hours
death or permanent disability, RR [6]: 0.49

COc1cc(NC(C)CCCN/C(C)=C2\CCOC2=O)c2ncccc2c1 (stereo not drawn) [buloquine]
oxidative toxicity compared with primaquine [7]: less oxidative toxicity

COc1cc(NC(C)CCCN)c2ncccc2c1 (stereo not drawn) [primaquine]
main safety concern ([7]; patients with glucose-6-phosphate dehydrogenase deficiency): risk of severe intravascular haemolysis

COc1cc(C)c2c(Oc3cccc(C(F)(F)F)c3)c(OC)cc(NC(C)CCCN)c2n1 (stereo not drawn) [tefenoquine, tafenoquine]
half-life compared with primaquine [8]: longer half-life

Atovaquone-proguanil
risk of birth defects relative to the general population [9]: ≤ 3 times
